Values quoted from earlier work, collected in PMC9762682, “Tocotrienols: Exciting Biological and Pharmacological Properties of Tocotrienols and Naturally Occurring Compounds, Part II” (Annals of clinical case reports, 2022).
pIC50: −log10 of the molar value. Like-named read-outs stand apart in the source and are kept apart here. Marks after values point to notes of the source that are not given here.

Columns and labels:
[1] = parameters: method as in ref 14 = [14]; PMID 27493840; doi:10.4172/2155-9880.1000434; 14. Qureshi AA , Khan DA , Saleem S , Silswal N , Trias AM , Tan B , Pharmacokinetics and bioavailability of Annatto δ-tocotrienol in healthy fed subjects . J Clin Exp Cardiol . 2015; 6 : 11 . 10.417
[2] = system: plasma total mRNAs gene expression; parameters: method as in PMID 30031388
[3] = system: Liver cancer cells; parameters: method as in PMID 29606130; value at effective dose: unit not given here
[4] = plasma tocol after single 125 mg δ-tocotrienol dose, healthy fed subjects
[5] = plasma tocol after single 125 mg δ-tocotrienol dose, healthy fed subjects, listed as δ-tocotrienol
[6] = plasma tocol after single 250 mg δ-tocotrienol dose, healthy fed subjects
[7] = plasma tocol after single 250 mg δ-tocotrienol dose, healthy fed subjects, listed as δ-tocotrienol
[8] = plasma tocol after single 500 mg δ-tocotrienol dose, healthy fed subjects
[9] = plasma tocol after single 500 mg δ-tocotrienol dose, healthy fed subjects, listed as δ-tocotrienol
[10] = hepatitis C patients, plasma total mRNAs, pre-dose vs post-dose

Compound: CC(C)=CCC/C(C)=C/CC/C(C)=C/CC[C@]1(C)CCc2cc(O)cc(C)c2O1 [δ-Tocotrienol]
- Time of clearance (Cl-T) ([1]; 125 mg/d Annatto δ-tocotrienol): 0.049 h⁻¹
- Time of clearance (Cl-T) ([1]; 250 mg/d Annatto δ-tocotrienol): 0.045 h⁻¹
- Time of clearance (Cl-T) ([1]; 500 mg/d Annatto δ-tocotrienol): 0.030 h⁻¹
- time of appearance in the plasma ([1]; after δ-tocotrienol administration to well-fed subjects): > 2 h
- Apparent volume of distribution (Vd/f) [1, 4]: 0.179 ± 0.035^a
- Elimination of Half-life time (t1/2) [1, 4]: 1.74 ± 0.36^a h
- Elimination rate constant (ke) [1, 4]: 0.381 ± 0.059^a h-1
- Plasma Peak Concentration (Cmax) [1, 4]: 828.82 ± 24.28^a ng/mL
- Time of clearance (Cl-T) [1, 4]: 0.049 ± 0.004^a I/h
- Time to achieve plasma peak (Tmax) [1, 4]: 3.00 h
- Area Under Curve-0 - 10 (AUC0-10) [1, 5]: 2460 ng·h/mL
- Plasma Peak Concentration (Cmax) [1, 5]: 829 ng/mL
- Apparent volume of distribution (Vd/f) [1, 6]: 0.114 ± 0.011^b
- Elimination of Half-life time (t1/2) [1, 6]: 1.39 ± 0.22^a h
- Elimination rate constant (ke) [1, 6]: 0.401 ± 0.039^b h-1
- Plasma Peak Concentration (Cmax) [1, 6]: 1920.36 ± 57.99^b ng/mL
- Time of clearance (Cl-T) [1, 6]: 0.045 ± 0.002^a I/h
- Time to achieve plasma peak (Tmax) [1, 6]: 3.00 h
- Area Under Curve-0 - 10 (AUC0-10) [1, 7]: 5410 ng·h/mL
- Plasma Peak Concentration (Cmax) [1, 7]: 1920 ng/mL
- Apparent volume of distribution (Vd/f) [1, 8]: 0.613 ± 0.102^c
- Elimination of Half-life time (t1/2) [1, 8]: 2.54 ± 0.05^b h
- Elimination rate constant (ke) [1, 8]: 0.050 ± 0.008^c h-1
- Plasma Peak Concentration (Cmax) [1, 8]: 3278.00 ± 124.13^c ng/mL
- Time of clearance (Cl-T) [1, 8]: 0.030 ± 0.001^b I/h
- Area Under Curve-0 - 10 (AUC0-10) [1, 9]: 15000 ng·h/mL
- Elimination rate constant (ke) [1, 9]: 0.265 h⁻¹
- Time to achieve plasma peak (Tmax) [1, 9]: 6 h
- bioavailability ([1]; when tocotrienols are supplemented in absence of tocopherols): better bioavailability
- side effects in hepatitis C patients ([2]; chronic hepatitis C patients): without any side-effect
- Expr. Fold Change: AKR1D1 [2, 10]: 14.056
- Expr. Fold Change: APOBEC3A [2, 10]: −8.163
- Expr. Fold Change: ATF4 [2, 10]: −9.515
- Expr. Fold Change: ATG3 [2, 10]: −8.376
- Expr. Fold Change: ATP1A1 [2, 10]: −8.014
- Expr. Fold Change: CERS3 [2, 10]: 19.082
- Expr. Fold Change: COX14 [2, 10]: −9.447
- Expr. Fold Change: CREB1 [2, 10]: −8.452
- Expr. Fold Change: CXCR2 [2, 10]: −8.208
- Expr. Fold Change: CYB5R4 [2, 10]: −8.367
- Expr. Fold Change: CYP2R1 [2, 10]: −8.682
- Expr. Fold Change: FRS2 [2, 10]: −9.962
- Expr. Fold Change: GPR65 [2, 10]: −9.054
- Expr. Fold Change: GPS2 [2, 10]: −9.56
- Expr. Fold Change: GTPBP8 [2, 10]: −10.19
- Expr. Fold Change: GYS1 [2, 10]: −9.027
- Expr. Fold Change: HBG1 [2, 10]: 17.945
- Expr. Fold Change: HBG2 [2, 10]: 11.413
- Expr. Fold Change: HHIPL2 [2, 10]: 28.710
- Expr. Fold Change: HIST1H2AD [2, 10]: 1804955.068
- Expr. Fold Change: HSP90AB1 [2, 10]: −8.049
- Expr. Fold Change: HSPA14 [2, 10]: −10.978
- Expr. Fold Change: ID2 [2, 10]: −14.133
- Expr. Fold Change: IFNGR2 [2, 10]: −13.844
- Expr. Fold Change: IGF2R [2, 10]: −8.68
- Expr. Fold Change: IGSF6 [2, 10]: −8.712
- Expr. Fold Change: IL2RG [2, 10]: −16.787
- Expr. Fold Change: IL16 [2, 10]: −8.239
- Expr. Fold Change: IL27RA [2, 10]: −12.004
- Expr. Fold Change: ILF2 [2, 10]: −9.105
- Expr. Fold Change: IRF2 [2, 10]: −22.655
- Expr. Fold Change: KLRC4-KLRK1/KLRK1 [2, 10]: −1565687.642
- Expr. Fold Change: MKX [2, 10]: 9.573
- Expr. Fold Change: MT-TQ [2, 10]: 14.252
- Expr. Fold Change: NDUFA11 [2, 10]: −8.686
- Expr. Fold Change: NDUFB1 [2, 10]: −8.566
- Expr. Fold Change: NDUFB9 [2, 10]: −8.354
- Expr. Fold Change: NFIL3 [2, 10]: −9.568
- Expr. Fold Change: OSBPL11 [2, 10]: −9.201
- Expr. Fold Change: P4HA3 [2, 10]: 8.686
- Expr. Fold Change: PDE3B [2, 10]: −8.568
- Expr. Fold Change: PECAM1 [2, 10]: −9.552
- Expr. Fold Change: PIAS1 [2, 10]: −9.326
- Expr. Fold Change: PIBF1 [2, 10]: −9.876
- Expr. Fold Change: PRPF18 [2, 10]: −8.777
- Expr. Fold Change: PSMA5 [2, 10]: −9.31
- Expr. Fold Change: PSMB4 [2, 10]: −10.119
- Expr. Fold Change: PSMB8 [2, 10]: −9.709
- Expr. Fold Change: PSMC3 [2, 10]: −8.346
- Expr. Fold Change: PTGS2 [2, 10]: −25.841
- Expr. Fold Change: RAP2C [2, 10]: −9.792
- Expr. Fold Change: RPP38 [2, 10]: 24.946
- Expr. Fold Change: RPS26 [2, 10]: −9.456
- Expr. Fold Change: SCP2 [2, 10]: −13.672
- Expr. Fold Change: SERP1 [2, 10]: −8.872
- Expr. Fold Change: SFPQ [2, 10]: −9.469
- Expr. Fold Change: TLR8 [2, 10]: −11.975
- Expr. Fold Change: TNFAIP8 [2, 10]: −10.974
- Expr. Fold Change: TNFRSF1B [2, 10]: −8.746
- Expr. Fold Change: TRAF7 [2, 10]: −9.341
- Expr. Fold Change: TSPAN15 [2, 10]: 11.523
- Expr. Fold Change: TUSC2 [2, 10]: −15.922
- Expr. Fold Change: UBA52 [2, 10]: −10.176
- Expr. Fold Change: UBE2J1 [2, 10]: −8.874
- Expr. Fold Change: UBE4A [2, 10]: −10.189
- Expr. Fold Change: UBP1 [2, 10]: −9.718
- Expr. Fold Change: USP15 [2, 10]: −10.16
- Expr. Fold Change: USP19 [2, 10]: −10.713
- Expr. Fold Change: USP25 [2, 10]: −9.911
- Expr. Fold Change: VEGFA [2, 10]: −8.933
- Expr. Fold Change: mir-140 [2, 10]: −5668.259
- Expr. Fold Change: mir-877 [2, 10]: −4497.07
- Expr. Fold Change: mir-1250 [2, 10]: −4755.79
- expression of pro-inflammatory cytokines (TNF-α, VCAM1, proteasome subunits) ([2]; plasma total mRNAs after δ-tocotrienol feeding to hepatitis C patients): significant inhibition
- expression of ICAM1 and IFN-γ ([2]; plasma total mRNAs after δ-tocotrienol feeding to hepatitis C patients, post-treatment): induction
- pIC50 [3]: 4.70
- percentage of control at IC50 dose [3]: 53%
- effective dose ([3]; 48 h): 20 µM
- percentage of control at effective dose ([3]; 48 h): 24%
- value at effective dose ([3]; 48 h): 17.7 ± 2.1
